# B1: bnKCPG^188: bnKCP1 with S188 mutated to G188 by site-directed mutagenesis (protein)
# chain: MAGGGPTFSIELSAYGSDLPTDKASGDIPNEEGSGLSRVGSGIWSGRTVDYSSESSSSIGTPGDSEEEDEESEEDNDEEELGLASLRSLEDSLPSKGLSSHYKGKSKSFGNLGEIGSVKEVPKQENPLNKKRRLQIYNKLARKSFYSWQNPKSMPLLPVHEDNDDEEGDDGDLSDEERGGDVLARRPGFKNRALKSMSCFALSDLQEEEEEEEDE
# B2: ΔbnKCP1^1-80: C-terminal truncated mutant of bnKCP1, residues 1-80, lacking the KID domain (protein)
# chain: MAGGGPTFSIELSAYGSDLPTDKASGDIPNEEGSGLSRVGSGIWSGRTVDYSSESSSSIGTPGDSEEEDEESEEDNDEEE
# B3: ΔbnKCP1^1-160: C-terminal truncated mutant of bnKCP1, residues 1-160, lacking the KID domain (protein)
# chain: MAGGGPTFSIELSAYGSDLPTDKASGDIPNEEGSGLSRVGSGIWSGRTVDYSSESSSSIGTPGDSEEEDEESEEDNDEEELGLASLRSLEDSLPSKGLSSHYKGKSKSFGNLGEIGSVKEVPKQENPLNKKRRLQIYNKLARKSFYSWQNPKSMPLLPVH
# Legend:
# BnSCL1 gene expression = assay: Quantitative one-step RT-PCR of BnSCL1 expression in treated seedlings; type: in vivo, Brassica napus
# Experimental: In exogenous applied auxin treatments, four-leaf stage seedlings grown at 20° C. were treated with a foliar spray containing 1 mM 2,4-D and 50 mM sodium phosphate, pH 7.5. The four leaves were collected at 30 min, 60 min and 180 min after the first foliar application of 2,4-D. For the measurement of response of shoots and roots to auxin, sterilized seeds were germinated on plates in a growth chamber with continuous light at 20° C., and 10 dpg seedlings were supplied with varied concentration of 2,4-D. In the auxin transport inhibition experiments, 9 dpg seedlings were incubated in the medium supplemented with 50 μM NPA dissolved in 0.1% DMSO for 24 h before the 2,4-D treatment. For the HDAC inhibitor treatments, 10 mM sodium butyrate was added onto the growth medium and incubated for 24 h followed by exogenous 2,4-D application at varied concentrations.
# Total RNA extracted as described above was treated with Amplification Grade Deoxyribonuclease I (GibcoL BRL) following the manufacture's instructions. The RNA samples were then directly used for reverse transcription prior to amplification without purification. The RT-PCR was quantitatively performed and completed in a one-step reaction using […] One-Step RT-PCR System (GibcoL BRL) as described by Gao et al. (2002). Gene-specific sense and anti-sense primers used to generate a 960 bp fragment of Brassica napus Actin, as an internal standard, were as described in Gao et al., (2002). Gene-specific primers for the generation of BnSCL1, BnIAA1 and BnIAA12 fragments were as follows: […]
# bnKCP1 expression = assay: Northern blot of bnKCP1 expression in leaves of treated seedlings; type: in vivo, Brassica napus; details: for bnKCP1 transcript in leaves after treatment: four-leaf stage seedlings, room temperature, 10 μM inomycin or 20 mM LaCl3
# Experimental: Brassica napus L. cv Cascade (winter type), Westar (spring type) and DES010 (spring type) were used for the isolation of genomic DNA and total RNA. Leaves, flowers, stems, siliques and immature seeds were harvested from plants cultured in a controlled-environment greenhouse programmed for a photoperiod of 16 h day and 8 h night. Roots were obtained by culturing sterilized seeds in 0.8% agar plates containing ½ MS medium and 1% sucrose. For cold acclimation (4° C.), abscisic acid (250 μM), drought and high salt (850 mM NaCl) treatments, four-leaf stage seedlings were treated and fourth fully expanded leaf blades were harvested as described by Gao et al. (2002). LaCl3 and inomycin treatments were carried out by watering four-leaf stage plants with 20 mM LaCl3 and 10 μM inomycin, respectively. Plants were covered with SARAN Wrap to slow evaporation.
# Total RNA was isolated from the tissues of B. napus L. cv DES010. These included leaves and stems of four-leaf stage seedlings, flowers, immature siliques of adult plants, and roots of cultured seedlings as described by Gao et al. (2001). Probe labelling, hybridization, washing and membrane stripping were performed as described above in the Southern blot analysis Section.
# GST-HDA19 = molecular target: T1, GST-HDA19 (Arabidopsis thaliana, UniProt O22446); assay: GST pulldown affinity assay of bnKCP1 and mutants with GST-HDA19; type: binding; details: [35S]Met-labeled in vitro translated protein
# T1 construct: made in house; host or cells: E. coli BL21-CodonPlus (DE3)-RP
# T1 sequence (O22446 1-501): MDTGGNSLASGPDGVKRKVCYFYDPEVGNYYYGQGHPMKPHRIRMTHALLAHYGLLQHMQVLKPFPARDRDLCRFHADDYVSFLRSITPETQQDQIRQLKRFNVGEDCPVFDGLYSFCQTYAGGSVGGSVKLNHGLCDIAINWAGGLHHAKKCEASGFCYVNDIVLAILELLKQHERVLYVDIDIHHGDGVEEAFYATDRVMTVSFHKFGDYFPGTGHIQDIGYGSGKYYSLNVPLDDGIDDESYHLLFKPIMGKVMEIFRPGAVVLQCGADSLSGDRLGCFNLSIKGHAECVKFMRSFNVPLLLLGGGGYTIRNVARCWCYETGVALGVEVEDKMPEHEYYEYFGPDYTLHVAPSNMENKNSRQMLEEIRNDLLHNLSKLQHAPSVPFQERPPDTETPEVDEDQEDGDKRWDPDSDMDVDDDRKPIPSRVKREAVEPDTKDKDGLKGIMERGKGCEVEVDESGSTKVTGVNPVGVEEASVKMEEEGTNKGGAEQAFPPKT
# Excerpt: (§1) The full coding regions of the Arabidopsis HAT, Gcn5 (Dr. M. Thomashow, Michigan State University, MI), and HDA19 (Accession # AF195547) were PCR amplified, sequence analyzed and inserted in-frame with the GST (glutathione s-transferase) into the SalI and NotI sites of vector pGEX-6P-2 (Amersham Pharmacia). The forward used for the amplification of Gcn5 was:
# (§2) Recombinant pGEX-6P-2 plasmids were used to transform E. coli BL21-CodonPlus (DE3)-RP competent cells (Stratagene). Expression and purification under non-denaturing conditions were carried out as described by Gao et al. (Gao, M.-J. et al., 2002). The GST-Gcn5 and GST-HDA19 fusion proteins were analyzed by 7.5% SDS-PAGE (SDS-polyacrylamide gel electrophoresis) and western blotting with rabbit anti-GST-Pi polyclonal antibody (Chemicon) using ECL Western blotting analysis system (Amersham Pharmacia).
# (§3) Full-length bnKCP1 and truncated mutant bnKCP1^1-160 and bnKCP1^1-80 proteins labeled with [^35S]methionine were produced using TNT-Quick Coupled Transcription/Translation System (Promega) according to the manufacture's instructions, with some modifications. A total of 1 μl of RNase inhibitor (GibcoL BRL) and 1 μl of protease inhibitors set (Roche) were added to the lysate reaction. After incubation for 90 min at 30° C., RNase A was added to the reaction to a final concentration of 0.2 mg/ml and incubated for 5 min at the same temperature.
# In vitro protein interaction was detected with GST pulldown affinity assays as described by Ahmad et al. (1999) with some modifications. Briefly, 6 μg of GST or 4 μg of GST-fusion protein was incubated with 5 μl of [^35S]Met-labeled translation mixture in 200 μl of bead-binding buffer (50 mM K-phosphate, pH 7.6, 450 mM KCl, 10 mM MgCl2, 10% glycerol, 1% Triton X-100, 1% BSA and 1 μl of diluted 1:12 protease inhibitors set) for 1 h at room temperature. After incubation, 20 μl of 50% slurry of glutathione-Sepharose beads containing 10 mg/ml of BSA and 4 μg of EtBr was mixed with the reaction mixture followed by gentle rotation for 1 h at 4° C. After washing six times with 1.2 ml of bead-binding buffer without BSA and EtBr but containing 12 μl of protease inhibitors set (Roche), the bound proteins were eluted with 30 μl of 2×SDS loading buffer, boiled for 2 min and analyzed by 12% SDS-PAGE. After electrophoresis, the gels were dried, treated with Amplify (Amersham Pharmacia) and subjected to fluorography.
# [1] = system: lacZ reporter gene driven by promoter containing GAL4 DNA binding sites; assay: Transactivation assay of bnKCP1 using yeast one-hybrid system; type: cell-based, yeast MaV203; details: transactivation in yeast
# Excerpt: Effector plasmids pDBLeu-bnKCP1^1-160, pDBLeu-bnKCP1^1-80, pDBLeu-bnKCP1^81-215 and pDBLeu-bnKCP1 were constructed by ligating the PCR-amplified fragments ΔbnKCP1^1-160, ΔbnKCP1^1-80, ΔbnKCP1^81-215 and the coding region of bnKCP1 into the SalI/NotI sites of pDBLeu vector (GibcoL BRL) in-frame with the GAL4 DB sequence. The oligonucleotide primers for PCR amplification were as follows: […]
# The three reporter genes, lacZ, HIS3 and URA3, which were chromosomally integrated in the genome of MaV203 yeast cells were driven by unrelated promoters containing GAL4 DNA binding sites (GibcoL BRL). For transient assays, the effector constructs or the negative control vector pDBLeu were transferred to the MaV203 yeast cells. The β-galactosidase activity was measured using CPRG (chlorophenol red-β-D-galactopyranoside) according to the manufacturer's instructions (GibcoL BRL). The MaV203 cells containing plasmids pDBLeu-HDA19 and pPC86-bnKCP1 were used as the positive control. In addition, we used three yeast control strains A, B, and C (GibcoL BRL), which were developed to contain plasmid pairs expressing fusion proteins with none, weak and moderately strong protein-protein interaction strength, respectively. Transient Expression of the GUS-bnCKP1 Fusion Protein
# GST-Gcn5 = molecular target: T2, GST-Gcn5 (Arabidopsis thaliana, UniProt Q9AR19); assay: GST pulldown affinity assay of bnKCP1 and mutants with GST-Gcn5; type: binding; details: [35S]Met-labeled in vitro translated protein
# T2 construct: made in house; host or cells: E. coli BL21-CodonPlus (DE3)-RP
# T2 sequence (Q9AR19 1-568): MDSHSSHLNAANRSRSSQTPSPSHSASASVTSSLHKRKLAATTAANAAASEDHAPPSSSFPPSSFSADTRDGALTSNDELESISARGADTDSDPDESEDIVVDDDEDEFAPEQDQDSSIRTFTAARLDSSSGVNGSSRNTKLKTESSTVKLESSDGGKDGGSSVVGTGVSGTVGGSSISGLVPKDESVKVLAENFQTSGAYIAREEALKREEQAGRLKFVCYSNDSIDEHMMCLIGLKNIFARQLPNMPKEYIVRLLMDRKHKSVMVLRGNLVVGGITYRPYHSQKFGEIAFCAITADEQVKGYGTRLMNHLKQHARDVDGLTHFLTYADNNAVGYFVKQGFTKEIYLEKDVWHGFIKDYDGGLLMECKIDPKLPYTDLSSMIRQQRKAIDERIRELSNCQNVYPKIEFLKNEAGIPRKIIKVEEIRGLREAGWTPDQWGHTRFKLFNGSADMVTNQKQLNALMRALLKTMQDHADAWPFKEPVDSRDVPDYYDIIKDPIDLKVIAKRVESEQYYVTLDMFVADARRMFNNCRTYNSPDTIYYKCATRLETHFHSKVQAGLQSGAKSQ
# Excerpt: as §1, §2, §3
# In vitro protein interaction was detected with GST pulldown affinity assays as described by Ahmad et al. (1999) with some modifications. […] After washing six times with 1.2 ml of bead-binding buffer without BSA and EtBr but containing 12 μl of protease inhibitors set (Roche), the bound proteins were eluted with 30 μl of 2×SDS loading buffer, boiled for 2 min and analyzed by 12% SDS-PAGE. […]
molecule,measurement,setting,value
"O=C(O)COc1ccc(Cl)cc1Cl [2,4-D]",BnSCL1 expression in roots,"BnSCL1 gene expression; 10 dpg seedlings, 100 μM required to produce an effect",upregulated
same,expression of BnSCL1 in shoots,"BnSCL1 gene expression; 10 dpg seedlings, even at the lowest level (1 pM)",rapidly downregulated
same,increase of BnSCL1 mRNA accumulation,"BnSCL1 gene expression; four-leaf stage seedlings, leaves, within 30 min of 1 mM foliar application, vs untreated plants",approximately 50%
inomycin,bnKCP1 transcript in leaves after treatment,bnKCP1 expression,rapid (2 hrs) but short-lived
"O=C(O)c1ccccc1C(=O)Nc1cccc2ccccc12 [NPA, naphthylphthalamic acid]",BnSCL1 mRNA accumulation profiles in response to auxin in shoots and roots,"BnSCL1 gene expression; 50 μM for 24 h before 2,4-D at different concentrations",not changed
"CC1=CC(=O)CC(C)(C)[C@@]1(O)/C=C/C(C)=C\C(=O)O [ABA, abscisic acid]",bnKCP1 expression in leaf blades after treatment,"bnKCP1 expression; exogenous application for up to 8 hours, data not shown",not detected
[Cl][La]([Cl])[Cl] [LaCl3],bnKCP1 transcript in leaves after treatment,bnKCP1 expression,undetectable
B1,in vitro binding to GST-HDA19,GST-HDA19,significantly reduced binding
B2,influence of deletion of KID or GKSKS domains on β-galactosidase activity,[1],no significant influence
same,in vitro binding to GST-HDA19,GST-HDA19,no interaction
same,in vitro binding to GST-Gcn5,GST-Gcn5,no interaction
B3,influence of deletion of KID or GKSKS domains on β-galactosidase activity,[1],no significant influence
same,in vitro binding to GST-HDA19,GST-HDA19,no interaction
same,in vitro binding to GST-Gcn5,GST-Gcn5,no interaction

# — patent US7553667B2, “Regulation of gene expression using chromatin remodelling factors” (Her Majesty the Queen in right of Canada as represented by …, priority 2002, dated 2009)
